Measurements: BindingDB's records for doi:10.1074/jbc.M600168200 (Duke University Medical Center, 2006)
pIC50: −log10 of the molar value.

Columns and labels:
[1] = target: Geranylgeranyl transferase type-1 subunit beta [A2V]/Protein farnesyltransferase/geranylgeranyltransferase type-1 subunit alpha (Homo sapiens, UniProt P49354+P53609, A2V); assay: In Vitro FTase/GGTase-1 Inhibition Assay; conditions: pH 7.7; 30 °C
Description: (§1) Compounds were tested as inhibitors of FTase or GGTase-1 in vitro using purified recombinant mammalian enzymes to catalyze the reactions between [3H] FPP or [3H]GGPP, and recombinant protein substrates. Incorporation of radiolabeled isoprenoid into Ras protein substrate was quantitated by precipitation of total protein with acid and scintillation counting. The inhibitory activity of the compounds is reported as an IC50 value, the concentration of inhibitor required to reduce radiolabel incorporation by 50% compared with an uninhibited control experiment.

[2] = target: Protein farnesyltransferase subunit beta/geranylgeranyltransferase type-1 subunit alpha (Homo sapiens, UniProt P49354+P49356); assay: In Vitro FTase/GGTase-1 Inhibition Assay; conditions: pH 7.7; 30 °C
Description: as §1

Chain of Geranylgeranyl transferase type-1 subunit beta [A2V]/Protein farnesyltransferase/geranylgeranyltransferase type-1 subunit alpha (P53609 whole entry A2V, other chains not shown): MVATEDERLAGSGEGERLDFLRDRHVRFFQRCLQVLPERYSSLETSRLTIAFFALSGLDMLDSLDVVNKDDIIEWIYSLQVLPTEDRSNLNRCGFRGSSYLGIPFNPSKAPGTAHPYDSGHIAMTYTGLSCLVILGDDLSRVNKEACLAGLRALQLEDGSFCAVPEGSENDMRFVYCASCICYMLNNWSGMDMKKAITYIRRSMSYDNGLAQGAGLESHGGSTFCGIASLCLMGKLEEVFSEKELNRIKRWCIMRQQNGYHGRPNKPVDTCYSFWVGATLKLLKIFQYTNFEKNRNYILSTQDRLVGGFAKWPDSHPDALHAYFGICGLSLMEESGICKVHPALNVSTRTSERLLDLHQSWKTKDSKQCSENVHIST

pIC50 [1]: 8.08
pIC50 [2]: < 5.70
SMILES: CSCCc1c(-c2cccnc2)nn(-c2ccc(Cl)c(Cl)c2)c1OCCCC(=O)N[C@@H](Cc1ccccc1)C(N)=O [N-[(S)-1-carbamoyl-2-phenylethyl]-4-[2-(3,4-di-chlorophenyl)-4-(2-methylsulfanylethyl)-5-pyridin-3-yl-2-H-pyrazol-3-yloxy]butyramide]
